Experiments:
Format in all cases: in vivo
wild type soybean = assay: Greenhouse postemergence test of ALS-inhibiting herbicides, wild type soybean
Method: (§1) Soybean lines having wild type als1 & 2 genes, the Als1 mutation, the Als2 mutation, or both the Als1 and Als2 mutations were evaluated for their response to various herbicides. Two seeds from each line were planted into 4-inch pots containing Redi-Earth potting mix (Sun Gro Horticulture Canada Ltd. 52130 RR65, Seba Beach, Alberta TOE 2B0), with two replications planted for each treatment. Pots were placed in flats at 15 pots/flat, and the resulting plants were grown in a greenhouse environment supplemented with lighting (16 hr photoperiod) for the duration of the test. Selected herbicides representing the mode of action that inhibits the acetolactate synthase enzyme, also known as the acetohydroxyacid synthase enzyme, were applied postemergence to soybean when soybean plants were at the V2 growth stage, which is the stage at which the first two trifoliolate leaves were expanded.
(§2) Eleven active ingredients representing the five chemical families with herbicidal activity on the acetolactate synthase enzyme were tested. These herbicides can cause a phytotoxic response in wild type soybean plants. The five chemical families tested were sulfonylaminocarbonyltriazolinone (also known as triazolinone), imidazolinone, sulfonylurea, pyrimidinylthiobenzoate, and triazolopyrimidine. Application rates ranged from 0.5 times to eight times the currently labeled application rate for each active ingredient with spray application volume at 30 gallons/acre. The application rates tested were 0.5×, 1×, 2×, 4× and 8× the label rate for each herbicide. Herbicidal active ingredients were applied as formulated materials dispersed in water containing 0.25% nonionic surfactant (Trend® 90).
(§3) The test was evaluated by visually scoring plant phenotype 14 days after the herbicides were applied. Controls consisted of soybean plants of the same variety that received no herbicide treatments for each of all the varieties tested. Soybean response was recorded on a zero to 100 visual scale in which zero is no phytotoxic response and 100 is plant death fourteen days after the herbicides were applied. Soybean response (percent phytotoxicity) to postemergence applications of herbicides inhibiting the acetolactate synthase enzyme test results are shown in Table 1.

[1] = tested on: soybean having the Als1 mutation; assay: Greenhouse postemergence test of ALS-inhibiting herbicides, soybean with Als1 mutation; details: for Avg response (% phytotoxicity), Trait Als1: Table 2; for EC10, Als1: rate of herbicide estimated to cause 10% phytotoxic response, loglogistic fit
Method: as §1, §2, §3
(§4) Results in Table 1 were evaluated using the isobole method for analyzing interactions. […] Here the biologically active agents that are being assessed for interaction (synergy) are gene mutations in soybean. The effectiveness of the genes in providing improved tolerance to ALS-inhibiting herbicides was assessed by applying increasing doses of herbicides to each soybean line with its mutation(s).
(§5) An isobole reduces a dose response surface in three dimensional space to a two dimensional plot by fixing a defined response level (e.g., 50% response). The isobole plot is a graph in the Cartesian plane with a straight line connecting the isoeffective rates of the individual components of the combination. This straight line represents expected responses for zero interactive combinations. The isoeffective rate used to create the isobole is often the EC50, the rate estimated to elicit 50% response, but other ECx values can be used. Since the isobole method is based on the potency of the components of the combination, an experimental design testing a range of rates expected to elicit the full range of responses (e.g., 0 to maximum response) is best. (Ferry et al. (2005) 2005 Conference on Applied Statistics in Agriculture Proceedings pp 33-50, Manhattan, Kans., Kansas State Univ.; Green and Streibig (1993) Herbicide Mixtures, pp 117-134 in Herbicide Bioassays, Streibig and Hudsk Eds, CRC, Boca Raton, Fla.).
(§6) Loglogistic dose response curves were fit to percent phytotoxicity response data using log 10 of dose (McCullagh and Nelder (1989) Generalized Linear Models, Chapman & Hall, London). Curves were fit using the logit link with normal errors. […]

[2] = tested on: soybean having the Als2 mutation; assay: Greenhouse postemergence test of ALS-inhibiting herbicides, soybean with Als2 mutation; details: for Avg response (% phytotoxicity), Trait Als2: Table 2; for EC10, Als2: rate of herbicide estimated to cause 10% phytotoxic response, loglogistic fit
Method: as §1, §2, §3, §4, §5, §6

[3] = tested on: soybean having both the Als1 and Als2 mutations; assay: Greenhouse postemergence test of ALS-inhibiting herbicides and isobole analysis, soybean with Als1 and Als2 mutations; details: for Avg response (% phytotoxicity), Trait Als1 + Als2: Table 2; for EC10, Als1 + Als2: rate of herbicide estimated to cause 10% phytotoxic response, loglogistic fit
Method: as §1, §2, §3, §4, §5, §6

[4] = 4.38 g ai/ha postemergence at V2, scored 14 days after application
[5] = 8.75 g ai/ha postemergence at V2, scored 14 days after application
[6] = 17.5 g ai/ha postemergence at V2, scored 14 days after application
[7] = 35 g ai/ha postemergence at V2, scored 14 days after application
[8] = 70 g ai/ha postemergence at V2, scored 14 days after application
[9] = rates 0.5x to 8x the label rate

SMILES: Cc1cc(C)nc(NC(=O)NS(=O)(=O)c2ccccc2C(=O)O)n1 [Sulfometuron]
- Soybean response (percent phytotoxicity), Wild type (wild type soybean; [4]): 60%
- Soybean response (percent phytotoxicity), Wild type (wild type soybean; [5]): 95%
- Soybean response (percent phytotoxicity), Wild type (wild type soybean; [6]): 98%
- Soybean response (percent phytotoxicity), Wild type (wild type soybean; [7]): 98%
- Soybean response (percent phytotoxicity), Wild type (wild type soybean; [8]): 98%
- Soybean response (percent phytotoxicity), Als1 [1, 4]: 0%
- Avg response (% phytotoxicity), Trait Als1 ([1]; 4.38 g ai/ha): 0%
- Soybean response (percent phytotoxicity), Als1 [1, 5]: 0%
- Avg response (% phytotoxicity), Trait Als1 ([1]; 8.75 g ai/ha): 0%
- Soybean response (percent phytotoxicity), Als1 [1, 6]: 10%
- Avg response (% phytotoxicity), Trait Als1 ([1]; 17.5 g ai/ha): 10%
- Soybean response (percent phytotoxicity), Als1 [1, 7]: 55%
- Avg response (% phytotoxicity), Trait Als1 ([1]; 35 g ai/ha): 55%
- Soybean response (percent phytotoxicity), Als1 [1, 8]: 80%
- Avg response (% phytotoxicity), Trait Als1 ([1]; 70 g ai/ha): 80%
- EC10, Als1 [1]: 14.93 g ai/ha
- phytotoxicity (in words), soybean containing only the Als1 gene ([1]; the higher doses): substantial phytotoxicity
- Soybean response (percent phytotoxicity), Als2 [2, 4]: 35%
- Avg response (% phytotoxicity), Trait Als2 ([2]; 4.38 g ai/ha): 35%
- Soybean response (percent phytotoxicity), Als2 [2, 5]: 40%
- Avg response (% phytotoxicity), Trait Als2 ([2]; 8.75 g ai/ha): 40%
- Soybean response (percent phytotoxicity), Als2 [2, 6]: 70%
- Avg response (% phytotoxicity), Trait Als2 ([2]; 17.5 g ai/ha): 70%
- Soybean response (percent phytotoxicity), Als2 [2, 7]: 75%
- Avg response (% phytotoxicity), Trait Als2 ([2]; 35 g ai/ha): 75%
- Soybean response (percent phytotoxicity), Als2 [2, 8]: 80%
- Avg response (% phytotoxicity), Trait Als2 ([2]; 70 g ai/ha): 80%
- EC10, Als2 [2]: 0.76 g ai/ha
- phytotoxicity (in words), soybean containing only the Als2 gene ([2]; the higher doses): substantial phytotoxicity
- Soybean response (percent phytotoxicity), Als1 + Als2 [3, 4]: 0%
- Avg response (% phytotoxicity), Trait Als1 + Als2 ([3]; 4.38 g ai/ha): 0%
- Soybean response (percent phytotoxicity), Als1 + Als2 [3, 5]: 0%
- Avg response (% phytotoxicity), Trait Als1 + Als2 ([3]; 8.75 g ai/ha): 0%
- Soybean response (percent phytotoxicity), Als1 + Als2 [3, 6]: 0%
- Avg response (% phytotoxicity), Trait Als1 + Als2 ([3]; 17.5 g ai/ha): 0%
- Soybean response (percent phytotoxicity), Als1 + Als2 [3, 7]: 10%
- Avg response (% phytotoxicity), Trait Als1 + Als2 ([3]; 35 g ai/ha): 10%
- Soybean response (percent phytotoxicity), Als1 + Als2 [3, 8]: 5%
- Avg response (% phytotoxicity), Trait Als1 + Als2 ([3]; 70 g ai/ha): 5%
- EC10, Als1 + Als2 [3]: 114.81 g ai/ha
- tolerance (in words), soybean containing both the Als1 and the Als2 genes ([3]; the higher doses): extremely tolerant

SMILES: COc1nc(C)nc(NC(=O)NS(=O)(=O)c2ccsc2C(=O)O)n1 [Thifensulfuron]
- Soybean response (percent phytotoxicity), Wild type (wild type soybean; [4]): 0%
- Soybean response (percent phytotoxicity), Wild type (wild type soybean; [5]): 10%
- Soybean response (percent phytotoxicity), Wild type (wild type soybean; [6]): 10%
- Soybean response (percent phytotoxicity), Wild type (wild type soybean; [7]): 25%
- Soybean response (percent phytotoxicity), Wild type (wild type soybean; [8]): 45%
- Soybean response (percent phytotoxicity), Als1 [1, 4]: 0%
- Soybean response (percent phytotoxicity), Als1 [1, 5]: 0%
- Soybean response (percent phytotoxicity), Als1 [1, 6]: 0%
- Soybean response (percent phytotoxicity), Als1 [1, 7]: 0%
- Soybean response (percent phytotoxicity), Als1 [1, 8]: 0%
- phytotoxic response (in words), Als1 [1, 9]: did not cause any phytotoxic response
- Soybean response (percent phytotoxicity), Als2 [2, 4]: 0%
- Soybean response (percent phytotoxicity), Als2 [2, 5]: 0%
- Soybean response (percent phytotoxicity), Als2 [2, 6]: 0%
- Soybean response (percent phytotoxicity), Als2 [2, 7]: 0%
- Soybean response (percent phytotoxicity), Als2 [2, 8]: 0%
- phytotoxic response (in words), Als2 [2, 9]: did not cause any phytotoxic response
- Soybean response (percent phytotoxicity), Als1 + Als2 [3, 4]: 0%
- Soybean response (percent phytotoxicity), Als1 + Als2 [3, 5]: 0%
- Soybean response (percent phytotoxicity), Als1 + Als2 [3, 6]: 0%
- Soybean response (percent phytotoxicity), Als1 + Als2 [3, 7]: 0%
- Soybean response (percent phytotoxicity), Als1 + Als2 [3, 8]: 0%
- phytotoxic response (in words), Als1+Als2 [3, 9]: did not cause any phytotoxic response

SMILES: COc1nc(C)nc(N(C)C(=O)NS(=O)(=O)c2ccccc2C(=O)O)n1 [Tribenuron]
- Soybean response (percent phytotoxicity), Wild type (wild type soybean; [4]): 10%
- Soybean response (percent phytotoxicity), Wild type (wild type soybean; [5]): 70%
- Soybean response (percent phytotoxicity), Wild type (wild type soybean; [6]): 93%
- Soybean response (percent phytotoxicity), Wild type (wild type soybean; [7]): 98%
- Soybean response (percent phytotoxicity), Wild type (wild type soybean; [8]): 98%
- Soybean response (percent phytotoxicity), Als1 [1, 4]: 0%
- Avg response (% phytotoxicity), Trait Als1 ([1]; 4.38 g ai/ha): 0%
- Soybean response (percent phytotoxicity), Als1 [1, 5]: 0%
- Avg response (% phytotoxicity), Trait Als1 ([1]; 8.75 g ai/ha): 0%
- Soybean response (percent phytotoxicity), Als1 [1, 6]: 0%
- Avg response (% phytotoxicity), Trait Als1 ([1]; 17.5 g ai/ha): 0%
- Soybean response (percent phytotoxicity), Als1 [1, 7]: 0%
- Avg response (% phytotoxicity), Trait Als1 ([1]; 35 g ai/ha): 0%
- Soybean response (percent phytotoxicity), Als1 [1, 8]: 10%
- Avg response (% phytotoxicity), Trait Als1 ([1]; 70 g ai/ha): 10%
- EC10, Als1 [1]: 70 g ai/ha
- Soybean response (percent phytotoxicity), Als2 [2, 4]: 0%
- Avg response (% phytotoxicity), Trait Als2 ([2]; 4.38 g ai/ha): 0%
- Soybean response (percent phytotoxicity), Als2 [2, 5]: 15%
- Avg response (% phytotoxicity), Trait Als2 ([2]; 8.75 g ai/ha): 15%
- Soybean response (percent phytotoxicity), Als2 [2, 6]: 40%
- Avg response (% phytotoxicity), Trait Als2 ([2]; 17.5 g ai/ha): 40%
- Soybean response (percent phytotoxicity), Als2 [2, 7]: 60%
- Avg response (% phytotoxicity), Trait Als2 ([2]; 35 g ai/ha): 60%
- Soybean response (percent phytotoxicity), Als2 [2, 8]: 65%
- Avg response (% phytotoxicity), Trait Als2 ([2]; 70 g ai/ha): 65%
- EC10, Als2 [2]: 4.96 g ai/ha
- Soybean response (percent phytotoxicity), Als1 + Als2 [3, 4]: 0%
- Avg response (% phytotoxicity), Trait Als1 + Als2 ([3]; 4.38 g ai/ha): 0%
- Soybean response (percent phytotoxicity), Als1 + Als2 [3, 5]: 0%
- Avg response (% phytotoxicity), Trait Als1 + Als2 ([3]; 8.75 g ai/ha): 0%
- Soybean response (percent phytotoxicity), Als1 + Als2 [3, 6]: 0%
- Avg response (% phytotoxicity), Trait Als1 + Als2 ([3]; 17.5 g ai/ha): 0%
- Soybean response (percent phytotoxicity), Als1 + Als2 [3, 7]: 0%
- Avg response (% phytotoxicity), Trait Als1 + Als2 ([3]; 35 g ai/ha): 0%
- Soybean response (percent phytotoxicity), Als1 + Als2 [3, 8]: 0%
- Avg response (% phytotoxicity), Trait Als1 + Als2 ([3]; 70 g ai/ha): 0%
- EC10, Als1 + Als2 [3]: >70 g ai/ha
